Measured values from US20110028549A1, “USE OF A MONOTERPENE TO TREAT OR PREVENT STRESS” (AISA THERAPEUTICS, priority 2007, published 2011).

Assays:
[1] = target: isoprenylation enzymes; details: cited from earlier work
[2] = test system: female rats Wistar HsdBrlHan; assay: Functional Observation Battery (FOB) in rats after oral treatment; format: in vivo, rat; details: for aggression (summary) / audible vocalization (summary) / body temperature (summary) / escapes after finger approach (summary) / interest for an object, curiosity (summary) / irritability (summary) / mictions (summary) / number of squares crossed (summary) / pain response (summary) / spontaneous activity (summary) / startle response (summary) / time before the rat falls (summary) / toe pinch reflex (summary) / wire manoeuvre (summary): FOB 1, 2 or 3 hours later, in comparison with the control; for capacity to tolerate stress: rats submitted to several stressful conditions, compared to vehicle-treated animals
Description: 1, 2 or 3 hours later, a Functional Observation Battery (FOB) was carried out.
Eighteen female rats Wistar HsdBrlHan EOPS (Ganat, France) with an average weight of 175-200 g are used. The 18 rats are weighed, marked and shared in 3 groups of 6 (n=6):
“control” group=oral treatment with maize oil;
“Perillic alcohol 10” group=oral treatment with perillic alcohol at 10 mg/kg;
The observations are carried out 60 minutes before treatment and 60, 120 and 180 minutes after the administration orally of the assayed products and comprise three observation phases:
a first direct observation phase during which the animal is not disturbed;
an active observation phase during which the animal is manipulated;
a phase dedicated to the evaluation of the responses of the animals towards the reactivity assays.
The studied variables are the following:
behavioural effects: spontaneous locomotive activity, locomotive behaviour troubles, anxiety, touch response, irritability, aggression and freezing caused behaviours, somnolence, number of defecations, number of mictions, sensor-motor responses (toe pinch response and sound response);
neurological effects: pupillary reflex, palpebral closure, pelvic elevation, tail position, limb and abdominal tones, reversal test, grip test, tremors and piloerection;
physiological effects: salivation, lacrimation, diarrhea, body temperature, respiratory rhythm.
Considering the Gaussian distribution or not of the data, parametric (P) or non-parametric (NP) tests are used: ANOVA (P) or Kruskal-Wallis test (NP) followed possibly by the Dunnett test (P) or the Mann-Whitney test (NP) to compare the treated groups with the control group. Statistics are carried out with the Statview 5 software (SAS, Institute Inc., USA).

[3] = 100 mg/kg limonene ingested in a custard, 4 h after ingestion, GC/MS; cited from earlier work
[4] = cancer patients, doses which may have clinical activity; cited from earlier work
[5] = 10 mg/kg orally, T+60 min, Mann-Whitney test
[6] = 10 mg/kg orally, T+120 min, Mann-Whitney test
[7] = 10 mg/kg orally, T+120 min, Mann-Whitney test vs. Control, n = 6
[8] = 10 mg/kg orally, T+180 min, Mann-Whitney test
[9] = 10 mg/kg orally, T+180 min, Mann-Whitney test vs. Control, n = 6

Molecule	IC50 on isoprenylation enzymes [1]	inhibition of the isoprenylation enzymes [1]	duration of the effect ([2]; 10 mg/kg orally)	overall effect indicated by the FOB results ([2]; 10 mg/kg orally)	time to response (onset) ([2]; 10 mg/kg orally)	aggression (summary) ([2]; 10 mg/kg orally)	audible vocalization (summary) ([2]; 10 mg/kg orally)	body temperature (summary) ([2]; 10 mg/kg orally)	escapes after finger approach (summary) ([2]; 10 mg/kg orally)	interest for an object, curiosity (summary) ([2]; 10 mg/kg orally)	irritability (summary) ([2]; 10 mg/kg orally)	mictions (summary) ([2]; 10 mg/kg orally)	number of squares crossed (summary) ([2]; 10 mg/kg orally)	pain response (summary) ([2]; 10 mg/kg orally)	spontaneous activity (summary) ([2]; 10 mg/kg orally)	startle response (summary) ([2]; 10 mg/kg orally)	time before the rat falls (summary) ([2]; 10 mg/kg orally)	toe pinch reflex (summary) ([2]; 10 mg/kg orally)	wire manoeuvre (summary) ([2]; 10 mg/kg orally)	Audible vocalization vs control group [2, 5]	further results
C=C(C)[C@@H]1CC=C(CO)CC1 [Perillic alcohol, (S)-4-Isopropenyl-1-cyclohexenylmethanol]	low mM range	more potent inhibitors	already decreased after 2 hours	an appeasing, relaxing effect, an anti-pain effect and an effect on temper giving a cheerful character	less than one hour	no aggression	very poor	a decrease	less quickly escapes	an increase	no irritability	an increase	an increase	a high decrease	an increase	an important decrease	an increase	a decrease	an increase	tendancy to emit less vocalization	Interest for an object vs control group [2, 5]: tendency to have a more important interest; Irritability vs control group [2, 5]: significantly less irritable; Toe pinch reflex vs control group [2, 5]: significantly less reactive; Finger approach, escapes vs control group [2, 6]: significantly less escapes; Audible vocalization [2, 7]: N.S.; Interest for an object [2, 7]: N.S.; Irritability [2, 7]: N.S.; Startles [2, 7]: N.S.; Audible vocalization vs control group [2, 8]: tendency to emit less vocalization; Body temperature [2, 9]: N.S.; Interest for an object [2, 9]: N.S.; Number of squares crossed [2, 9]: N.S.; Startles [2, 9]: N.S.; Wire manoeuver [2, 9]: N.S.; capacity to tolerate stress [2]: an important effect leading to the capacity to tolerate stress
S-limonene		only weak inhibitors																			
C=C(C)[C@@H]1CC=C(C(=O)O)CC1 [perillic acid]	low mM range	more potent inhibitors																			
C=C(C)[C@H]1CC=C(C)CC1 [Limonene, (4R)-1-methyl-4-isopropenylcyclohex-1-ene]		only weak inhibitors	at least 3 hours	an appeasing, relaxing effect, an anti-pain effect and an effect on temper giving a cheerful character	less than one hour	no aggression	very poor	a decrease	less quickly escapes	an increase	no irritability	an increase	an increase	a high decrease	an increase	an important decrease	an increase	a decrease	an increase	significantly less vocalization	Interest for an object vs control group [2, 5]: significantly more important; Irritability vs control group [2, 5]: significantly less irritable; Toe pinch reflex vs control group [2, 5]: significantly less reactive; Audible vocalization vs control group [2, 6]: significantly less vocalization; Finger approach, escapes vs control group [2, 6]: significantly less escapes; Interest for an object vs control group [2, 6]: significantly more important; Irritability vs control group [2, 6]: significantly less irritable; Startles vs control group [2, 6]: significantly less startles; Audible vocalization vs control group [2, 8]: significantly less vocalization; Body temperature vs control group [2, 8]: significantly lower; Interest for an object vs control group [2, 8]: significantly higher; Number of squares crossed vs control group [2, 8]: significantly more squares; Startles vs control group [2, 8]: significantly less startles; Wire manoeuvre vs control group [2, 8]: significantly more often; capacity to tolerate stress [2]: an important effect leading to the capacity to tolerate stress; compounds (plasma metabolites) present in blood [3]: at least five compounds; identity of the two major plasma metabolite peaks [3]: dihydroperillic acid and perillic acid; tolerability [4]: well tolerated
